{"source": "patent EP2077092A2", "about": "“System and Methods for Screening or Analyzing Targets” (Taipei Veterans General Hospital, priority 2007, dated 2009)", "assay_type_in_all_cases": "cell-based, Sprague-Dawley (SD) rats", "key": {"[1]": {"test_system": "Bad", "assay": "Real-time RT-PCR of Bad mRNA in IM-treated NSCs", "conditions": "Day 3, Day 5, and Day 7 of IM-treated NSCs", "experimental": "All animals used were treated in accordance with the Animal Care and Use Committee guideline at Taipei Veterans General Hospital. The protocol of the present study was also approved by the committee. Adult Sprague-Dawley (SD) rats (8 weeks old, 250 g) were anesthetized with intraperitoneal phenobarbital (Sigma, USA), and the location of their brains was mapped. Then, the brain […]. In brief, tissues from the hippocampus of adult rats were dissociated and incubated in Hank's balanced salt solution (HBSS) containing collagenase (78 units/ml) and hyaluronidase (38 units/ml) for 10 minutes at 37°C. The tissues were then mechanically dissected and placed in a trypsin solution (1.33 mg/ml) at 37°C for another 10 minutes. Dissociated cells were then centrifuged at 150 GG for 5 minutes. […] Viable cells were counted by trypan blue exclusion and plated as 5000 cells/200 µL per well in 96-well plates (Coming Inc, Acton, MA, USA) with no substrate pretreatment. […]\nFor real-time RT-PCR, the total RNA was extracted using the RNAeasy kit (Qiagen, Valencia, CA, USA). […] The quantification in the unknown samples was performed with LightCycler Relative Quantification Software version 3.3 (Roche Molecular Systems, Alameda, CA, USA). […]"}, "[2]": {"test_system": "Bcl-2 protein", "assay": "Bcl-2 protein expression in NSCs by western blot and immunohistochemistry"}, "[3]": {"test_system": "LPS-treated NSCs", "assay": "MTT cell survival of LPS-treated NSCs", "conditions": "vs the only LPS-treated NSCs; LPS 100 ng/ml"}, "[4]": {"test_system": "LPS-treated NSCs", "assay": "TUNEL assay of LPS-induced apoptosis in NSCs", "conditions": "LPS-treated NSCs, vs LPS-treated NSCs without treatment"}, "[5]": {"test_system": "IL-1β", "assay": "IL-1β ELISA in LPS-treated NSCs", "conditions": "vs only LPS-treated NSCs, IM 3 µM, p<0.05"}, "[6]": {"test_system": "IL-6", "assay": "IL-6 ELISA in LPS-treated NSCs", "conditions": "vs only LPS-treated NSCs, IM 3 µM, p<0.05"}, "[7]": {"test_system": "TNF-α", "assay": "TNF-α ELISA in LPS-treated NSCs", "conditions": "vs only LPS-treated NSCs, IM 3 µM, p<0.05"}, "[8]": {"test_system": "NSCs", "assay": "Immunofluorescent assay of MAP-2-positive cells in differentiating NSCs", "conditions": "Day 7 culture of IM-treated NSCs vs non IM-treated NSCs, p<0.05"}, "[9]": {"test_system": "NSCs", "assay": "Microdialysis with HPLC-ECD of 5-HT in the culture medium of IM-treated NSCs", "conditions": "Day 7 and Day 14, IM-treated NSCs vs NSCs without IM treatment, p<0.05"}}, "data": [{"smiles": "CN(C)CCCN1c2ccccc2CCc2ccccc21", "note": "[IM, imipramine]", "values": [{"measurement": "expression of Bad", "setting": "[1]", "result": "not activated"}, {"measurement": "protein expression level of Bcl-2 in LPS-treated NSCs", "setting": "[2]; 3 µM IM vs 1, 2 µM IM-LPS-treated, only LPS-treated and control groups", "result": "significantly increased"}, {"measurement": "protein levels of Bcl-2 (western blot)", "setting": "[2]; Day 3 IM-treated NSCs vs Day 3 non-IM-treated NSCs, p<0.05", "result": "higher"}, {"measurement": "expression levels of the Bcl-2 protein (western blot)", "setting": "[2]; Day 7 IM-treated NSCs vs Day 3 or Day 5 IM-treated NSCs, p<0.05", "result": "significantly increased"}, {"measurement": "protein expression of Bcl-2 (immunohistochemistry)", "setting": "[2]; Day 7 IM-treated NSCs vs NSCs without the IM treatment", "result": "significantly increased"}, {"measurement": "Bcl-2 expression in NSCs", "setting": "[2]; treatment with IM only or BDNF only", "result": "can activate Bcl-2 expression"}, {"measurement": "cell survival rates in the LPS-treated NSCs", "setting": "[3]", "result": "significantly increases"}, {"measurement": "LPS-induced apoptosis (TUNEL assay)", "setting": "[4]", "result": "protected against LPS-induced apoptosis"}, {"measurement": "IL-1β production in the LPS-treated NSCs", "setting": "[5]", "result": "effectively reduces"}, {"measurement": "IL-6 production in the LPS-treated NSCs", "setting": "[6]", "result": "effectively reduces"}, {"measurement": "TNF-α production in the LPS-treated NSCs", "setting": "[7]", "result": "effectively reduces"}, {"measurement": "percentages of MAP-2-positive cells", "setting": "[8]", "result": "significantly increased"}, {"measurement": "5-HT levels of the culture mediums", "setting": "[9]", "result": "significantly higher"}]}]}
